{"source": "patent US10441663B2", "about": "“Methods for treating cancer” (Bicycle Therapeutics Limited, priority 2016, dated 2019)", "tested_on": "3LL syngeneic model", "test": "In vivo efficacy of BT1718 in 3LL syngeneic model (Example 9)", "set-up": "species or system Mus Musculus", "description": "The objective of this study was to evaluate the in vivo anti-tumor efficacy of BT1718 in the treatment of the subcutaneous 3LL syngeneic model in C57BL/6 mice.\nThe 3LL tumor cells were maintained in vitro as a monolayer culture in medium supplemented with 10% heat inactivated fetal bovine serum at 37° C. in an atmosphere of 5% CO2 in air. The tumor cells were routinely subcultured twice weekly by trypsin-EDTA treatment. The cells growing in an exponential growth phase were harvested and counted for tumor inoculation.\nEach mouse was inoculated subcutaneously at the right flank with 3LL tumor cells (1×106) in 0.1 ml of PBS for tumor development. The animals were randomized and treatment was started when the average tumor volume reaches approximately 105 mm^3 for the efficacy study. The test article administration and the animal numbers in each group were shown in the experimental design table (Table 48).\nAll the procedures related to animal handling, care and the treatment in the study were performed according to the guidelines of the Association for Assessment and Accreditation of Laboratory Animal Care (AAALAC). At the time of routine monitoring, the animals were daily checked for any effects of tumor growth and treatments on normal behavior such as mobility, food and water consumption (by looking only), body weight gain/loss (body weights were measured every day), eye/hair matting and any other abnormal effect as stated in the protocol. Death and observed clinical signs were recorded on the basis of the numbers of animals within each subset.\nThe major endpoint was to see if the tumor growth could be delayed or mice could be cured. Tumor size was measured three times weekly in two dimensions using a caliper, and the volume was expressed in mm^3 using the formula: V=0.5 a×b2 where a and b are the long and short diameters of the tumor, respectively. The tumor size was then used for calculations of T/C value. The T/C value (in percent) is an indication of antitumor effectiveness; T and C are the mean volumes of the treated and control groups, respectively, on a given day.\nTGI was calculated for each group using the formula: TGI (%)=[1−(Ti−T0)/(Vi−V0)]×100; Ti is the average tumor volume of a treatment group on a given day, T0 is the average tumor volume of the treatment group on the day of treatment start, Vi is the average tumor volume of the vehicle control group on the same day with Ti, and V0 is the average tumor volume of the vehicle group on the day of treatment start.\nSummary statistics, including mean and the standard error of the mean (SEM), are provided for the tumor volume of each group at each time point.\nStatistical analysis of difference in tumor volume among the groups was conducted on the data obtained at the best therapeutic time point after the final dose.\nA one-way ANOVA was performed to compare tumor volume among groups, and when a significant F-statistics (a ratio of treatment variance to the error variance) was obtained, comparisons between groups were carried out with Games-Howell test. All data were analyzed using Prism. P<0.05 was considered to be statistically significant.", "note": "*1 amine or outer side, *2 acyl side, *3 side chain or, on linkers, in order; H or OH if unused. Where a SMILES comes first, the peptide text is derived from it. Bridges are numbered along the chain shown (N, C = ends). [ ]: non-standard residue; d: D form. The star is where a group is joined. X1 = COc1cc2cc(c1Cl)N(C)C(=O)C[C@H](OC(=O)[C@H](C)N(C)C(=O)CCSSC(C)CCC(=O)*)[C@]1(C)O[C@H]1[C@H](C)[C@@H]1C[C@@](O)(NC(=O)O1)[C@H](OC)/C=C/C=C(\\C)C2; 1Nal = N[C@@H](Cc1cccc2ccccc12)C(=O)O; TBMB = c1c(C[*:1])cc(C[*:3])cc1C[*:2]; Tle = CC(C)(C)[C@H](N)C(=O)O; βAla = NCCC(=O)O; Sar = CNCC(=O)O"}
{"smiles": "COc1cc2cc(c1Cl)N(C)C(=O)C[C@H](OC(=O)[C@H](C)N(C)C(=O)CCSSC(C)CCC(=O)NCCC(=O)N(C)CC(=O)N(C)CC(=O)N(C)CC(=O)N(C)CC(=O)N(C)CC(=O)N(C)CC(=O)N(C)CC(=O)N(C)CC(=O)N(C)CC(=O)N(C)CC(=O)N[C@@H](C)C(=O)N[C@H]1CSCc3cc4cc(c3)CSC[C@H](NC(=O)[C@@H](C)NC(=O)[C@H](Cc3cccc5ccccc35)NC(=O)[C@H](CCC(=O)O)NC(=O)[C@H](CC(N)=O)NC(=O)[C@@H](C)NC1=O)C(=O)N[C@@H](CCC(=O)O)C(=O)N[C@@H](CC(=O)O)C(=O)N[C@@H](Cc1ccccc1)C(=O)N[C@@H](Cc1ccc(O)cc1)C(=O)N[C@@H](CC(=O)O)C(=O)N[C@@H](C(C)(C)C)C(=O)N[C@H](C(N)=O)CSC4)[C@]1(C)O[C@H]1[C@H](C)[C@@H]1C[C@@](O)(NC(=O)O1)[C@H](OC)/C=C/C=C(\\C)C2", "note": "(stereo partly shown) [BT1718] ({X1-βAla}-[Sar][Sar][Sar][Sar][Sar][Sar][Sar][Sar][Sar][Sar]AC[dA]NE[1Nal][dA]CEDFYD[Tle]C-NH2; linker 12-18-25 via TBMB (inferred))", "values": [{"measurement": "TGI", "setting": "1 mg/kg, day 14", "result": 104.9, "unit": "%"}, {"measurement": "Tumor Volume", "setting": "1 mg/kg, day 14", "result": 2649, "unit": "mm^3"}, {"measurement": "TGI", "setting": "3 mg/kg, day 14", "result": 69.9, "unit": "%"}, {"measurement": "Tumor Volume", "setting": "3 mg/kg, day 14", "result": 1764, "unit": "mm^3"}, {"measurement": "TGI", "setting": "10 mg/kg, day 14", "result": 89.9}, {"measurement": "Tumor Volume", "setting": "10 mg/kg, day 14", "result": 350, "unit": "mm^3"}, {"measurement": "tumor volume trace over time", "setting": "1 mpk biw, day 0", "result": "106 ± 10", "unit": "mm^3"}, {"measurement": "tumor volume trace over time", "setting": "1 mpk biw, day 2", "result": "239 ± 47", "unit": "mm^3"}, {"measurement": "tumor volume trace over time", "setting": "1 mpk biw, day 4", "result": "405 ± 98", "unit": "mm^3"}, {"measurement": "tumor volume trace over time", "setting": "1 mpk biw, day 7", "result": "765 ± 190", "unit": "mm^3"}, {"measurement": "tumor volume trace over time", "setting": "1 mpk biw, day 9", "result": "1120 ± 267", "unit": "mm^3"}, {"measurement": "tumor volume trace over time", "setting": "1 mpk biw, day 11", "result": "1568 ± 392", "unit": "mm^3"}, {"measurement": "T/C", "setting": "1 mpk biw, day 14", "result": 104.9, "unit": "%"}, {"measurement": "TGI", "setting": "1 mpk biw, day 14", "result": "−5.1", "unit": "%"}, {"measurement": "tumor volume trace over time", "setting": "1 mpk biw, day 14", "result": "2649 ± 553", "unit": "mm^3"}, {"measurement": "Tumor Volume", "setting": "1 mpk, biw, day 14, Mean ± SEM", "result": "2649 ± 553", "unit": "mm^3"}, {"measurement": "tumor volume trace over time", "setting": "3 mpk biw, day 0", "result": "105 ± 9", "unit": "mm^3"}, {"measurement": "tumor volume trace over time", "setting": "3 mpk biw, day 2", "result": "234 ± 48", "unit": "mm^3"}, {"measurement": "tumor volume trace over time", "setting": "3 mpk biw, day 4", "result": "423 ± 86", "unit": "mm^3"}, {"measurement": "tumor volume trace over time", "setting": "3 mpk biw, day 7", "result": "706 ± 152", "unit": "mm^3"}, {"measurement": "tumor volume trace over time", "setting": "3 mpk biw, day 9", "result": "991 ± 245", "unit": "mm^3"}, {"measurement": "tumor volume trace over time", "setting": "3 mpk biw, day 11", "result": "1149 ± 313", "unit": "mm^3"}, {"measurement": "T/C", "setting": "3 mpk biw, day 14", "result": 69.9, "unit": "%"}, {"measurement": "TGI", "setting": "3 mpk biw, day 14", "result": 31.4, "unit": "%"}, {"measurement": "tumor volume trace over time", "setting": "3 mpk biw, day 14", "result": "1764 ± 471", "unit": "mm^3"}, {"measurement": "Tumor Volume", "setting": "3 mpk, biw, day 14, Mean ± SEM", "result": "1764 ± 471", "unit": "mm^3"}, {"measurement": "tumor volume trace over time", "setting": "10 mpk biw, day 0", "result": "106 ± 8", "unit": "mm^3"}, {"measurement": "tumor volume trace over time", "setting": "10 mpk biw, day 2", "result": "181 ± 21", "unit": "mm^3"}, {"measurement": "tumor volume trace over time", "setting": "10 mpk biw, day 4", "result": "272 ± 38", "unit": "mm^3"}, {"measurement": "tumor volume trace over time", "setting": "10 mpk biw, day 7", "result": "339 ± 86", "unit": "mm^3"}, {"measurement": "tumor volume trace over time", "setting": "10 mpk biw, day 9", "result": "321 ± 85", "unit": "mm^3"}, {"measurement": "tumor volume trace over time", "setting": "10 mpk biw, day 11", "result": "343 ± 92", "unit": "mm^3"}, {"measurement": "T/C", "setting": "10 mpk biw, day 14", "result": 13.8, "unit": "%"}, {"measurement": "TGI", "setting": "10 mpk biw, day 14", "result": 89.9, "unit": "%"}, {"measurement": "tumor volume trace over time", "setting": "10 mpk biw, day 14", "result": "350 ± 105", "unit": "mm^3"}, {"measurement": "Tumor Volume", "setting": "10 mpk, biw, day 14, Mean ± SEM", "result": "350 ± 105", "unit": "mm^3"}, {"measurement": "body weight effect", "setting": "all mice", "result": "maintained their bodyweight well"}]}
